Test: xn = mol fraction of the nth substance listed
Conditions: 293.15 K, 100 kPa, Liquid, Alternating current cell with electrodes

CCCC[N+]1(C)CCCC1.N#CN=C=[N-] [1-butyl-1-methylpyrrolidinium dicyanamide] + O=C1CCCO1
Conditions	electrical conductivity [S/m]
Frequency=0.0015 MHz, x1 = 0.3029	2.29
Frequency=0.0015 MHz, x1 = 0.3845	2.112
Frequency=0.0015 MHz, x1 = 0.4985	1.84
Frequency=0.0015 MHz, x1 = 0.6954	1.46
Frequency=0.0015 MHz, x1 = 0.9013	1.19
Frequency=0.0015 MHz, x1 = 1	1.123
Frequency=0.002 MHz, x1 = 0.0463	1.37
Frequency=0.002 MHz, x1 = 0.0987	2.04
Frequency=0.002 MHz, x1 = 0.1449	2.31
Frequency=0.002 MHz, x1 = 0.1859	2.443
Frequency=0.002 MHz, x1 = 0.2493	2.37
Frequency=0.002 MHz, x1 = 0.3029	2.29
Frequency=0.002 MHz, x1 = 0.3845	2.113
Frequency=0.002 MHz, x1 = 0.4985	1.84
Frequency=0.002 MHz, x1 = 0.6954	1.46
Frequency=0.002 MHz, x1 = 0.9013	1.19
Frequency=0.002 MHz, x1 = 1	1.123
Frequency=0.0025 MHz, x1 = 0.0463	1.37
Frequency=0.0025 MHz, x1 = 0.0987	2.04
Frequency=0.0025 MHz, x1 = 0.1449	2.31
Frequency=0.0025 MHz, x1 = 0.1859	2.445
Frequency=0.0025 MHz, x1 = 0.2493	2.37
Frequency=0.0025 MHz, x1 = 0.3029	2.29
Frequency=0.0025 MHz, x1 = 0.3845	2.114
Frequency=0.0025 MHz, x1 = 0.4985	1.84
Frequency=0.0025 MHz, x1 = 0.6954	1.46
Frequency=0.0025 MHz, x1 = 0.9013	1.19
Frequency=0.0025 MHz, x1 = 1	1.123
Frequency=0.003 MHz, x1 = 0.0463	1.37
Frequency=0.003 MHz, x1 = 0.0987	2.05
Frequency=0.003 MHz, x1 = 0.1449	2.31
Frequency=0.003 MHz, x1 = 0.1859	2.45
Frequency=0.003 MHz, x1 = 0.2493	2.37
Frequency=0.003 MHz, x1 = 0.3029	2.29
Frequency=0.003 MHz, x1 = 0.3845	2.114
Frequency=0.003 MHz, x1 = 0.4985	1.84
Frequency=0.003 MHz, x1 = 0.6954	1.46
Frequency=0.003 MHz, x1 = 0.9013	1.19
Frequency=0.003 MHz, x1 = 1	1.123
Frequency=0.00347222 MHz, x1 = 0.0463	1.37
Frequency=0.00347222 MHz, x1 = 0.0987	2.05
Frequency=0.00347222 MHz, x1 = 0.1449	2.31
Frequency=0.00347222 MHz, x1 = 0.1859	2.45
Frequency=0.00347222 MHz, x1 = 0.2493	2.37
Frequency=0.00347222 MHz, x1 = 0.3029	2.29
Frequency=0.00347222 MHz, x1 = 0.3845	2.115
Frequency=0.00347222 MHz, x1 = 0.4985	1.84
Frequency=0.00347222 MHz, x1 = 0.6954	1.46
Frequency=0.00347222 MHz, x1 = 0.9013	1.19
Frequency=0.00347222 MHz, x1 = 1	1.123
Frequency=0.004 MHz, x1 = 0.0463	1.37
Frequency=0.004 MHz, x1 = 0.0987	2.05
Frequency=0.004 MHz, x1 = 0.1449	2.31
Frequency=0.004 MHz, x1 = 0.1859	2.45
Frequency=0.004 MHz, x1 = 0.2493	2.37
Frequency=0.004 MHz, x1 = 0.3029	2.29
Frequency=0.004 MHz, x1 = 0.3845	2.115
Frequency=0.004 MHz, x1 = 0.4985	1.84
Frequency=0.004 MHz, x1 = 0.6954	1.46
Frequency=0.004 MHz, x1 = 0.9013	1.19
Frequency=0.004 MHz, x1 = 1	1.123
Frequency=0.00446429 MHz, x1 = 0.0463	1.37
Frequency=0.00446429 MHz, x1 = 0.0987	2.05
Frequency=0.00446429 MHz, x1 = 0.1449	2.31
Frequency=0.00446429 MHz, x1 = 0.1859	2.45
Frequency=0.00446429 MHz, x1 = 0.2493	2.37
Frequency=0.00446429 MHz, x1 = 0.3029	2.29
Frequency=0.00446429 MHz, x1 = 0.3845	2.115
Frequency=0.00446429 MHz, x1 = 0.4985	1.84
Frequency=0.00446429 MHz, x1 = 0.6954	1.46
Frequency=0.00446429 MHz, x1 = 0.9013	1.19
Frequency=0.00446429 MHz, x1 = 1	1.123
Frequency=0.005 MHz, x1 = 0.0463	1.37
Frequency=0.005 MHz, x1 = 0.0987	2.05
Frequency=0.005 MHz, x1 = 0.1449	2.31
Frequency=0.005 MHz, x1 = 0.1859	2.45
Frequency=0.005 MHz, x1 = 0.2493	2.37
Frequency=0.005 MHz, x1 = 0.3029	2.29
Frequency=0.005 MHz, x1 = 0.3845	2.115
Frequency=0.005 MHz, x1 = 0.4985	1.84
Frequency=0.005 MHz, x1 = 0.6954	1.46
Frequency=0.005 MHz, x1 = 0.9013	1.19
Frequency=0.005 MHz, x1 = 1	1.123
Frequency=0.005454 MHz, x1 = 0.0463	1.37
Frequency=0.005454 MHz, x1 = 0.0987	2.05
Frequency=0.005454 MHz, x1 = 0.1449	2.31
Frequency=0.005454 MHz, x1 = 0.1859	2.45
Frequency=0.005454 MHz, x1 = 0.2493	2.37
Frequency=0.005454 MHz, x1 = 0.3029	2.29
Frequency=0.005454 MHz, x1 = 0.3845	2.116
Frequency=0.005454 MHz, x1 = 0.4985	1.84
Frequency=0.005454 MHz, x1 = 0.6954	1.46
Frequency=0.005454 MHz, x1 = 0.9013	1.19
Frequency=0.005454 MHz, x1 = 1	1.123
Frequency=0.006 MHz, x1 = 0.0463	1.37
Frequency=0.006 MHz, x1 = 0.0987	2.05
Frequency=0.006 MHz, x1 = 0.1449	2.31
Frequency=0.006 MHz, x1 = 0.1859	2.45
Frequency=0.006 MHz, x1 = 0.2493	2.37
Frequency=0.006 MHz, x1 = 0.3029	2.29
Frequency=0.006 MHz, x1 = 0.3845	2.116
Frequency=0.006 MHz, x1 = 0.4985	1.84
Frequency=0.006 MHz, x1 = 0.6954	1.46
Frequency=0.006 MHz, x1 = 0.9013	1.19
Frequency=0.006 MHz, x1 = 1	1.123
Frequency=0.00652174 MHz, x1 = 0.0463	1.37
Frequency=0.00652174 MHz, x1 = 0.0987	2.05
